Measurements from patent publication US20240343710A1, “HETEROCYCLIC COMPOUNDS AND METHODS OF USE THEREOF” (1cBio, Inc., priority 2023, published 2024).
pIC50: −log10 of the molar value. Structures can show the parent of a compound that is named as a salt. Where two headings read alike, the source gives them in different places.

Columns and labels:
[1] = tested on: DLD-1 BRCA2(−/−) colorectal adenocarcinoma cells; assay: Cell viability assay (Cell Titer-Glo, 7 days), DLD-1 BRCA2(−/−); type: cell-based; settings: Homo sapiens, 168 h, DLD-1 BRCA2(−/−) cells
Description: (§1) In some embodiments, the biological assay measures the effects that compounds of the present disclosure may have on the viability of cells, e.g., the viability of cancer cells. In some embodiments, DLD-1 wild-type and DLD-1 BRCA2(−/−) colorectal adenocarcinoma cells, an isogenic pair of cell lines differing in the presence and absence, respectively, of both BRCA2 alleles, are used to measure the effect of the disclosed compounds on the viability of cancer cells. In some embodiments, the cells are harvested during the logarithmic growth period, counted, and seeded at a specified count in the wells of a 96- or 384-well cell culture plate. In some embodiments, after seeding, the cells are incubated, e.g., at 37° C., 5% CO2 overnight. In some embodiments, the cells are treated with compounds, e.g., with serially diluted test compounds at 8-11 concentrations within a desired concentration range, e.g., from 1 nM-10 μM, for the generation of dose-response curves. In some embodiments, the plate is further incubated, e.g., for another 3-7 days in a humidified incubator at 37° C. and 5% CO2. In some embodiments, cell viability is assessed by luminescence measurement after addition of Cell Titer-Glo reagent (Promega, Madison, Wis.) according to the manufacturer's instructions. In some embodiments, cell viability IC50 values are calculated using XLFit, equation 201: y=A+((B−A)/(1+((x/C)^D))), where A=bottom, B=top, C=IC50, and D=slope. In some embodiments, the effects of the test compounds on the viability of other cell lines such as MDA-MB-436, MDA-MB-231, SUM149PT, HCC1395, and UWB1.289 are determined in an analogous method.
(§2) Compounds of the present disclosure were tested for their effects on the viability of cancer cells. DLD-1 wild-type and DLD-1 BRCA2(−/−) colorectal adenocarcinoma cells, an isogenic pair of cell lines differing in the presence and absence, respectively, of both BRCA2 alleles, were used. The cells were harvested during the logarithmic growth period, counted, and seeded at 50 cells/well for DLD-1 wild-type and 200 cells/well for DLD-1 BRCA2(−/−) in a 384-well cell culture plate. After seeding, cells were incubated at 37° C., 5% CO2 overnight. Cells were treated with serially diluted test compounds at 10 concentrations (e.g., from 1.5 nM-30 μM) for generation of dose response curves, or at a single concentration. The plate was further incubated for another 7 days in a humidified incubator at 37° C. and 5% CO2. Cell viability was assessed by luminescence measurement after addition of Cell Titer-Glo reagent (Promega, Madison, Wis.) according to the manufacturer's instructions. Cell viability IC50 values were calculated using XLFit, equation 201. y=A+((B−A)/(1+((x/C)^D))), where A=bottom, B=top, C=IC50, and D=slope. IC50 values are shown in Table B and are presented in ranges, in which “+++”<300 nM, 300 nM≤“++”<3000 nM, and “+”≥3000 nM. Values for percent inhibition at 10 μM are also shown in Table B and are presented in ranges, in which “***”≥67%, 33%: “**”≤67%, and “*”<33%. Effects of the test compounds on the viability of other cell lines such as MDA-MB-436, MDA-MB-231, SUM149PT, HCC1395, and UWB1.289 are determined in an analogous method.

recombinant human PARP2 = recombinant human PARP2 (Homo sapiens, UniProt Q9UGN5); assay: PARP2 fluorescence polarization binding assay; settings: read-out: PARP2 % inh at 10 μM
Chain of recombinant human PARP2 (Q9UGN5 whole entry): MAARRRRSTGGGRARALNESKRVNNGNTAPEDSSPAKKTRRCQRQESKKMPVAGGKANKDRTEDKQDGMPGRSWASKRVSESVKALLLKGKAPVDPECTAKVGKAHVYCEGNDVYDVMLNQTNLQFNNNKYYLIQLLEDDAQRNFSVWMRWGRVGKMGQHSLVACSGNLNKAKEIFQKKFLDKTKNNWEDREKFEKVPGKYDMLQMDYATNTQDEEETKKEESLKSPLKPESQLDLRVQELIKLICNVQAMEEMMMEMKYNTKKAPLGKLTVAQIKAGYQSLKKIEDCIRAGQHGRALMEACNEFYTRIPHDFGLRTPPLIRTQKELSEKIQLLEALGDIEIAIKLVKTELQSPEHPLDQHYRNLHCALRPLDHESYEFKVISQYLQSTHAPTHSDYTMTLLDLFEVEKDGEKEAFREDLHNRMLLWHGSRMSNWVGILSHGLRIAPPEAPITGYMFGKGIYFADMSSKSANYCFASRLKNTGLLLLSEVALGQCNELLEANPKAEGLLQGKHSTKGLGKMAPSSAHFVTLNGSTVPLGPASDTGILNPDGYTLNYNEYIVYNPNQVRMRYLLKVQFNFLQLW

recombinant human PARP1 = recombinant human PARP1 (Homo sapiens, UniProt P09874); assay: PARP1 fluorescence polarization binding assay; settings: GST-tagged PARP1 20 nM, PARP1-FL probe 3 nM
Chain of recombinant human PARP1 (P09874 whole entry): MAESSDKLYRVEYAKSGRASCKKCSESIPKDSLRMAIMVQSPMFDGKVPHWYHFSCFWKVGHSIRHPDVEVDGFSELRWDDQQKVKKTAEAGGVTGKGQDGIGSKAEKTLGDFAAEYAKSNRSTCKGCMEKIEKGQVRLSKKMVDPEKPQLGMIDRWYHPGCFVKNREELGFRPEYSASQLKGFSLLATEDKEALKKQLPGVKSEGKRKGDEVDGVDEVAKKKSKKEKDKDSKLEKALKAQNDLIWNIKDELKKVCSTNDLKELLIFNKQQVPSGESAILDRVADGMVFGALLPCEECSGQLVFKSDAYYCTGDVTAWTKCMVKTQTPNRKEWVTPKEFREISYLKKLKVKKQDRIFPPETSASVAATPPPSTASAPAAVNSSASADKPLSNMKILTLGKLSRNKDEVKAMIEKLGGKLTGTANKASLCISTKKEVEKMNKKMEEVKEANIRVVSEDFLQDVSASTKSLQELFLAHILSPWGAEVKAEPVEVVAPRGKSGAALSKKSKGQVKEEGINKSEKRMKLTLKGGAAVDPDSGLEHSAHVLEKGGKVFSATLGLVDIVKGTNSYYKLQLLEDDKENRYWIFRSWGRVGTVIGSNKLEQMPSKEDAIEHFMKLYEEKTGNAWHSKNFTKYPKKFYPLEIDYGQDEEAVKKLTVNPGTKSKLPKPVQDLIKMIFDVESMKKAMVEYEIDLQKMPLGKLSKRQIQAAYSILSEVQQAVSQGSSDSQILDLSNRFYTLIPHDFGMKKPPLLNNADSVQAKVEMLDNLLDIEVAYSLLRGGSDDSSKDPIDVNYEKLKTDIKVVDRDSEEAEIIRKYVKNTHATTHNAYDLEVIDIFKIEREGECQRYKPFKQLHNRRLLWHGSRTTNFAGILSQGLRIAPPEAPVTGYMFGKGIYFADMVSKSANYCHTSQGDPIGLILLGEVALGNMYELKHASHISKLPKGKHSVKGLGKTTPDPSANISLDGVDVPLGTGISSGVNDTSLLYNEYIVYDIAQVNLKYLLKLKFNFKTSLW
Experimental: In some embodiments, the biological assay is described in the Examples herein. In some embodiments, the biological assay measures PARP-1 binding by way of fluorescence polarization measurements. In some embodiments, binding of a test compound to recombinant human PARP-1 reduces the amount of binding of a fluorescent probe, and consequently reduces the detected level of fluorescence polarization. In some test compound stock solutions are prepared in a solvent, e.g., DMSO, and are serially diluted into a range of concentrations, e.g., 15 concentrations, 14 concentrations, 13 concentrations, 12 concentrations, 11 concentrations, 10 concentrations, 9 concentrations, 8 concentrations, 7 concentrations, 6 concentrations, or 5 concentrations, by a dilution factor, e.g., a 10-fold dilution factor, a 9-fold dilution factor, an 8-fold dilution factor, a 7-fold dilution factor, a 6-fold dilution factor, a 5-fold dilution factor, a 4-fold dilution factor, a 3-fold dilution factor, or a 2-fold dilution factor. In some embodiments, the serial dilutions, e.g., 100 nL of serial dilution, 90 nL of serial dilution, 80 nL of serial dilution, 70 nL of serial dilution, 60 nL of serial dilution, 50 nL of serial dilution, 30 nL of serial dilution, 20 nL of serial dilution, or 10 nL of serial dilution, are added to a multi-welled plate, e.g., a 1536-well plate, a 384-well plate, or a 96-well plate. In some embodiments, PARP-1, e.g., GST-tagged PARP-1, is diluted in assay buffer, e.g., 50 μL of assay buffer, 40 μL of assay buffer, e.g., 30 μL of assay buffer, 20 μL of assay buffer, 10 μL of assay buffer, or 5 μL of assay buffer, and is added to the plate. In some embodiments, the plate is centrifuged, e.g., at 1000 rpm for 1 min, and incubated, e.g., incubated for 30 minutes at room temperature (RT). In some embodiments, a fluorescent probe, e.g., 10 μL of 6 nM PARP1-FL (TOCRIS, Cat #6461), is diluted in an assay buffer and is added to the plate. In some embodiments, the final concentrations of PARP-1 and fluorescent probe are 20 nM and 3 nM, respectively, in a total volume of 20 μL. In some embodiments, the plate is centrifuged, e.g., at 1000 rpm for 1 minute, and the assay plate is incubated, e.g., for 4 h at RT. In some embodiments, the samples in each well are read using a plate reader, e.g., an Envision instrument using excitation=480 nm, and emission wavelength=FITC FP-P pol 535 nm & FITC FP-S pol 535 nm). In some embodiments, percent inhibition is calculated from mP values using Inhibition (%)=[1−(mPc−mPL)/(mPH−mPL)]×100%, where mPc, mPL, and mPH are the mP values of test compound, Low controls, and High controls, respectively. In some embodiments, binding IC50 values are calculated using XLFit (equation 201: y=A+((B−A)/(1+((x/C)^D))), where A=bottom, B=top, C=IC50, and D=slope) with a floating top and bottom for curves.
Compounds of the present disclosure were tested in a PARP1 fluorescence polarization binding assay at Pharmaron (Beijing, P.R. China). In this biochemical assay, binding of test compound to recombinant human PARP1 reduces the amount of binding of a fluorescent probe, and consequently reduces the detected level of fluorescence polarization. Test compound stock solutions were prepared in DMSO and then serially diluted into 10 concentrations by 3-fold dilution in a 384-well plate using a TECAN EVO200. Alternatively, a single concentration was prepared. 60 nL of each dilution was transferred to the plate using an Echo550 (Labcyte), and then 10 μL 40 nM GST-tagged PARP1 (BPS Bioscience, Cat #80501), diluted in assay buffer (50 mM Tris pH 8.0, 0.001% Triton X-100, 10 mM MgCl2, 150 mM NaCl), was added to the plate. After a centrifugation at 1000 rpm for 1 min, the assay plate was incubated for 30 min at RT. 10 μL 6 nM PARP1-FL (TOCRIS, Cat #6461), diluted using assay buffer, was then added to the plate. The final concentrations of PARP1 and PARP1-FL were 20 nM and 3 nM, respectively, in a total volume of 20 μL. […]

[2] = tested on: DLD-1 wild-type colorectal adenocarcinoma cells; assay: Cell viability assay (Cell Titer-Glo, 7 days), DLD-1 wild-type; type: cell-based; settings: Homo sapiens, 168 h, DLD-1 wild-type cells, read-out: DLD-1 wild-type % inh at 10 μM
Description: as §1, §2

[3] = percent inhibition at 10 μM, fluorescence polarization, GST-tagged PARP2 20 nM, PARP1-FL probe 3 nM

| Structure (SMILES) | pIC50 [1] | pIC50 (recombinant human PARP1) | inhibition at 10 µM (recombinant human PARP2; [3]) | inhibition at 10 µM (recombinant human PARP2) | inhibition at 10 µM [2] |
| --- | --- | --- | --- | --- | --- |
| CNC(=O)Nc1cc(CN2CCN(c3ccc(C(=O)NC)nc3C)CC2)ccn1 [Compound 42, N,6-dimethyl-5-(4-((2-(3-methylureido)pyridin-4-yl)methyl)piperazin-1-yl)picolinamide trifluoroacetate] | > 6.52 | > 7.00 |  | < 33% | < 33% |
| CCNC(=O)Nc1cc(CN2CCN(c3ccc(C(=O)NC)nc3C(F)(F)F)CC2)ccn1 [Compound 21, 5-(4-((2-(3-ethylureido)pyridin-4-yl)methyl)piperazin-1-yl)-N-methyl-6-(trifluoromethyl)picolinamide trifluoroacetate] | > 6.52 | > 7.00 |  | < 33% | < 33% |
| CCNC(=O)Nc1ncc(CN2CCN(c3ccc(C(=O)NC)nc3C)CC2)o1 [Compound 246, 5-(4-((2-(3-ethylureido)oxazol-5-yl)methyl)piperazin-1-yl)-N,6-dimethylpicolinamide] | > 6.52 | > 7.00 | < 33% |  | < 33% |
| CCNC(=O)Nc1cc(CN2CCN3c4ccc(C(=O)NC)nc4OC[C@H]3C2)ccn1 [Compound 264, (R)-3-((2-(3-ethylureido)pyridin-4-yl)methyl)-N-methyl-1,2,3,4,4a,5-hexahydropyrazino[1,2-d]pyrido[2,3-b][1,4]oxazine-8-carboxamide] | > 6.52 | > 7.00 | 33 to 67% |  | < 33% |
| CCNC(=O)Nc1cc(CN2CCN(c3ccc(C#N)cc3F)CC2)ccn1 [Compound 276, 1-(4-((4-(4-cyano-2-fluorophenyl)piperazin-1-yl)methyl)pyridin-2-yl)-3-ethylurea trifluoroacetate] | > 6.52 | > 7.00 |  | < 33% | < 33% |

The next lines start with results.

| pIC50 [1] | pIC50 (recombinant human PARP1) | inhibition at 10 µM (recombinant human PARP2; [3]) | Structure (SMILES) | inhibition at 10 µM (recombinant human PARP2) | inhibition at 10 µM [2] |
| --- | --- | --- | --- | --- | --- |
| ≤ 5.52 | > 7.00 | < 33% | CCNC(=O)Nc1ncc(CN2CCN(c3ccc(C(=O)NC)nc3C)CC2)n1C [Compound 277, 5-(4-((2-(3-ethylureido)-1-methyl-1H-imidazol-5-yl)methyl)piperazin-1-yl)-N,6-dimethylpicolinamide] |  | < 33% |
| 5.52 to 6.52 | 5.52 to 7.00 | < 33% | CCCC(=O)Nc1cc(CN2CCN(c3ccc(C(=O)NC)nc3C)CC2)ccn1 [Compound 161, 5-(4-((2-butyramidopyridin-4-yl)methyl)piperazin-1-y)-N,6-dimethylpicolinamide] |  | < 33% |
| > 6.52 | > 7.00 | < 33% | CCNC(=O)Nc1cc(CN2CCN(c3ccc(C#N)cn3)CC2)ccn1 [Compound 263, 1-(4-((4-(5-cyanopyridin-2-yl)piperazin-1-yl)methyl)pyridin-2-yl)-3-ethylurea] |  | < 33% |
| > 6.52 | > 7.00 | 33 to 67% | CCNC(=O)Nc1cc(CN2CCN(c3ccc(C(=O)NC)nc3C#N)CC2)ccn1 [Compound 22, 6-cyano-5-(4-((2-(3-ethylureido)pyridin-4-yl)methyl)piperazin-1-yl)-N-methylpicolinamide] |  | < 33% |
| > 6.52 | > 7.00 | < 33% | CCNC(=O)Nc1cc(CN2CCN(c3ccc(NC(C)=O)nc3C)CC2)ccn1 [Compound 269, N-(5-(4-((2-(3-ethylureido)pyridin-4-yl)methyl)piperazin-1-yl)-6-methylpyridin-2-yl)acetamide] |  | < 33% |
| > 6.52 | > 7.00 | < 33% | [2H]C([2H])([2H])c1nc(C(=O)NC)ccc1N1CCN(Cc2ccnc(NC(=O)NCC)c2)CC1 [Compound 274, 5-(4-((2-(3-ethylureido)pyridin-4-yl)methyl)piperazin-1-yl)-N-methyl-6-(methyl-d3) picolinamide hemiformate] |  | < 33% |
| > 6.52 | > 7.00 | < 33% | CCNC(=O)Nc1ncnc(CN2CCN(c3ccc(C(=O)NC)nc3F)CC2)c1F [Compound 278, 5-(4-((6-(3-ethylureido)-5-fluoropyrimidin-4-yl)methyl)piperazin-1-yl)-6-fluoro-N-methylpicolinamide] |  | < 33% |
